# Experimental data reported in ChEMBL document CHEMBL5465560, “Selectivity Literature for EUbOPEN Chemogenomic Library” (2024).
# Key:
# [1] = molecular target: T1, 3-phosphoinositide-dependent protein kinase 1 (Homo sapiens) (UniProt O15530); assay: Selectivity interaction (KinomeScan (DiscoverX)) EUB0001049a PDPK1; conditions: at 1 µM
# T1 sequence (whole entry): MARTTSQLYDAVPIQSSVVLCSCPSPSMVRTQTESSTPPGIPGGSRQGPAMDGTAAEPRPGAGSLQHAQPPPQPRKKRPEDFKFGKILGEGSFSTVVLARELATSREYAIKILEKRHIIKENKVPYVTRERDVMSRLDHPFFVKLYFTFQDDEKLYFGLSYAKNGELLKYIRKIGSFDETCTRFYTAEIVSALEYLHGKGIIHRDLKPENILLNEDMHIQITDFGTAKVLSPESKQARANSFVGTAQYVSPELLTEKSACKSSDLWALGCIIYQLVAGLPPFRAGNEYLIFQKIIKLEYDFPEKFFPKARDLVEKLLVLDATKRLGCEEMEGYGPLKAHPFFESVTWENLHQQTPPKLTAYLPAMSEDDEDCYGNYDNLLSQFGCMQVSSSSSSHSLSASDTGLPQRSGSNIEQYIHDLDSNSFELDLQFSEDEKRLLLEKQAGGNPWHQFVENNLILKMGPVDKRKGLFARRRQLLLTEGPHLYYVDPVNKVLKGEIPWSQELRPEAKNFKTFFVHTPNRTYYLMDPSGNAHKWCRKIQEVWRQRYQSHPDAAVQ
# [2] = molecular target: Vascular endothelial growth factor receptor 2 (Homo sapiens, UniProt P35968); assay: Selectivity interaction (KinomeScan (DiscoverX)) EUB0000666a KDR; conditions: at 10 µM
# [3] = molecular target: T2, Tyrosine-protein kinase JAK3 (Homo sapiens) (UniProt P52333); assay: Selectivity interaction (KinomeScan (DiscoverX)) EUB0000229b JAK3; conditions: at 10 µM
# T2 sequence (whole entry): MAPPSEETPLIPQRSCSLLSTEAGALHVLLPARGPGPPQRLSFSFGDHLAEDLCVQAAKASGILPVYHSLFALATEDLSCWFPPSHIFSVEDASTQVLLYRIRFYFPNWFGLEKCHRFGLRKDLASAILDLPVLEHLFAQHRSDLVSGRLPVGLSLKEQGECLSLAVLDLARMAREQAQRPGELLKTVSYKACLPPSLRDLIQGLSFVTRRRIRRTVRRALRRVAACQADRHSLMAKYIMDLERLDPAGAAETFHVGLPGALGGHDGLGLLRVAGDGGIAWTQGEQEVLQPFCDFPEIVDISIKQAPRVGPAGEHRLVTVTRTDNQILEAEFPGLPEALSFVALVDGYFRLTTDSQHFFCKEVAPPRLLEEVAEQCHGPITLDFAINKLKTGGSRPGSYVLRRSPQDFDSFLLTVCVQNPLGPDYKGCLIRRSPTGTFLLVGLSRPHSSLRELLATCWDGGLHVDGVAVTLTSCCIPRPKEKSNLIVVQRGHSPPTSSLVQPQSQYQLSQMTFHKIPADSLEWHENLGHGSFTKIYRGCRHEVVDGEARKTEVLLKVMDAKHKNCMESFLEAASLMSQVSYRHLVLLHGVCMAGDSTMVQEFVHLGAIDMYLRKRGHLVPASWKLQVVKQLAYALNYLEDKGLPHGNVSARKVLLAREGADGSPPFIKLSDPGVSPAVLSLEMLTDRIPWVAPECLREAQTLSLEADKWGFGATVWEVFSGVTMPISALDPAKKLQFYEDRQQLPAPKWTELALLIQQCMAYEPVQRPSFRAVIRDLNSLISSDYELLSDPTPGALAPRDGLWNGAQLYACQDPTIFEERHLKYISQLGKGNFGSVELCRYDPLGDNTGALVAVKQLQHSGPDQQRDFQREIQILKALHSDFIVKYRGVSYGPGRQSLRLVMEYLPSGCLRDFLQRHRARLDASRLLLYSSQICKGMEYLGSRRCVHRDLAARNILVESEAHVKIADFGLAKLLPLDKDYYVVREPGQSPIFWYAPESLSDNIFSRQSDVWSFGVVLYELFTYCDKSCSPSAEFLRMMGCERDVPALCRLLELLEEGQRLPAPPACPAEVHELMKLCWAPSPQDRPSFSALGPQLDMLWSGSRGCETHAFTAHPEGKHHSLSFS
# [4] = molecular target: T3, Aurora kinase A (Homo sapiens) (UniProt O14965); assay: Selectivity interaction (ActivX KiNativ screen (kinase selectivity in THP-1 cell lysates)) EUB0000639a STK6; assay type: subcellular; conditions: lysate, at 1 µM
# T3 sequence (whole entry): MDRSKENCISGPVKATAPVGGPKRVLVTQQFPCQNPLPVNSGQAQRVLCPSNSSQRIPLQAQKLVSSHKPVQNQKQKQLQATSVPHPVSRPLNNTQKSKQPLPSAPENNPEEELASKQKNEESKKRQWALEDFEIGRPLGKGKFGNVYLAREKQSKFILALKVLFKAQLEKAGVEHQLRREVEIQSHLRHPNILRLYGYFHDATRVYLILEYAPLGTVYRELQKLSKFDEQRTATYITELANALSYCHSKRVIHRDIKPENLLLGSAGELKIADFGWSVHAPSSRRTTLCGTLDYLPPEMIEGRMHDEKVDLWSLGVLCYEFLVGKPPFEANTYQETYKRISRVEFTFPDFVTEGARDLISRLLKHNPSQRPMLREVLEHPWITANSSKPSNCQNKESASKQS
# [5] = molecular target: Leukocyte tyrosine kinase receptor (Homo sapiens, UniProt P29376); assay: Selectivity interaction (KinomeScan (DiscoverX)) EUB0000695a LTK; conditions: at 100 nM
# [6] = molecular target: Serine/threonine-protein kinase PAK 4 (Homo sapiens, UniProt O96013); assay: Selectivity interaction (SelectScreen profiling (Invitrogen)) EUB0000607a PAK4; conditions: at 2 µM
# [7] = molecular target: Activated CDC42 kinase 1 (Homo sapiens, UniProt Q07912); assay: Selectivity interaction (ProQinase) EUB0000171b TNK2
# Sequence of Activated CDC42 kinase 1 (Q07912 whole entry, looked up): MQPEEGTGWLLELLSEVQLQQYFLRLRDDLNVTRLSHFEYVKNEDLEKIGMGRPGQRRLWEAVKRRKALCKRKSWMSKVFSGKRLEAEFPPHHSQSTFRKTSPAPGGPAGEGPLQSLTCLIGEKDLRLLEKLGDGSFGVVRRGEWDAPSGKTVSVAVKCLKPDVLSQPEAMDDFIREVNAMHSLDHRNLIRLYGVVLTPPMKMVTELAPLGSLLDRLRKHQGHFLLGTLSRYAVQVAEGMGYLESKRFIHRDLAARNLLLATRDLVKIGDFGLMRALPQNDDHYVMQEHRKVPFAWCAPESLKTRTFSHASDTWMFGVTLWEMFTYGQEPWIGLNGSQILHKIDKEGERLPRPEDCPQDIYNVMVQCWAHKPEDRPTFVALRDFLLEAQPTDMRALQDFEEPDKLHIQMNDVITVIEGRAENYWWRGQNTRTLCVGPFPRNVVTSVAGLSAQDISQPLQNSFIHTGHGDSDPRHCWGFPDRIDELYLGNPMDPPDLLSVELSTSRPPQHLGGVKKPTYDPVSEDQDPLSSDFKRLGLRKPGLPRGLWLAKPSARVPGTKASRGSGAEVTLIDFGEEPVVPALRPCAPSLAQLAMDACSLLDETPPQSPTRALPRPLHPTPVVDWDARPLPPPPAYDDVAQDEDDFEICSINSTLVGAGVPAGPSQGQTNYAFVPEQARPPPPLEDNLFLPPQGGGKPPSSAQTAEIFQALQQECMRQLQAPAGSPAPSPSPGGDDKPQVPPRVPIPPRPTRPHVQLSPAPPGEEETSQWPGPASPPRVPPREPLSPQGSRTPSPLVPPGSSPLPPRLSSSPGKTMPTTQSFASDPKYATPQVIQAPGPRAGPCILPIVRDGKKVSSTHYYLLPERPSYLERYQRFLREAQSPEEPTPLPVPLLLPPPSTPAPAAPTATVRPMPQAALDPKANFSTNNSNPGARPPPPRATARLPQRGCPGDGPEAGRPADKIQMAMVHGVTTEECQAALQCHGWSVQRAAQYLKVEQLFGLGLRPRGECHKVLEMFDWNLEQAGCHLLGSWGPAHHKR
# Sequence of Vascular endothelial growth factor receptor 2 (P35968 whole entry): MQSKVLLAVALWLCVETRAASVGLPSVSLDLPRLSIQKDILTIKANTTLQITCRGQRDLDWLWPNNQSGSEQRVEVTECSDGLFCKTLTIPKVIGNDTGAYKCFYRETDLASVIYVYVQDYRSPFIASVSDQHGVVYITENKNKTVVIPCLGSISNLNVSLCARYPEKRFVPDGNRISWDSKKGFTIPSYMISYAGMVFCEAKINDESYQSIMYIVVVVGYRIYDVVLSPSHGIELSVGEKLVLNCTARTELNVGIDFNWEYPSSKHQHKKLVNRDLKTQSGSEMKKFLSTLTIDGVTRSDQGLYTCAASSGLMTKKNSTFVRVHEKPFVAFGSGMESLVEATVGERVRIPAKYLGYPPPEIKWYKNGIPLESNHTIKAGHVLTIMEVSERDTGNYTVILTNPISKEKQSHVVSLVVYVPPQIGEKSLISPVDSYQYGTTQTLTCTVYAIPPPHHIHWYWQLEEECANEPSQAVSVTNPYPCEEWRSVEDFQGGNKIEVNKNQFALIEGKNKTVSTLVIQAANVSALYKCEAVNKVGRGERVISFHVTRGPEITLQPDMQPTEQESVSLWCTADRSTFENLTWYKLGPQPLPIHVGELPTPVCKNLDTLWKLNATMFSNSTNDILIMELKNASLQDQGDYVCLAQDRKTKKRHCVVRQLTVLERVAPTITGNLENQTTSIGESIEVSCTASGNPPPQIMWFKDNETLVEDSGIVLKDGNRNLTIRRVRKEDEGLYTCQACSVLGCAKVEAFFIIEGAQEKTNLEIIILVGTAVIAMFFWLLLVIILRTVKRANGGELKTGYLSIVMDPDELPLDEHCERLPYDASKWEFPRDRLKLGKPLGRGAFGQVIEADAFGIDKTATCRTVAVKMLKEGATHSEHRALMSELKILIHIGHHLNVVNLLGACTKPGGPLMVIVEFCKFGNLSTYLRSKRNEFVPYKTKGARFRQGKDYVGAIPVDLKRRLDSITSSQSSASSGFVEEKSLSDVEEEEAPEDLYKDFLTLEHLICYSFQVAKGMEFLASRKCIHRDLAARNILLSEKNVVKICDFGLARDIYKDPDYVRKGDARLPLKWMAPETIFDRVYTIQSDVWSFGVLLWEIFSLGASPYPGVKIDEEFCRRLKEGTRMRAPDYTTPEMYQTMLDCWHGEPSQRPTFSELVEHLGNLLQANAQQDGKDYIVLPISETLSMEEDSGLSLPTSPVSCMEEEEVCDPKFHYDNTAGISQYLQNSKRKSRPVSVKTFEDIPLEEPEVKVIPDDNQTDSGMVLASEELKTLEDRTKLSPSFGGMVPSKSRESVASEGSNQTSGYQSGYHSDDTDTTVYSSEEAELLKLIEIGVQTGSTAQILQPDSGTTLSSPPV
# Sequence of Leukocyte tyrosine kinase receptor (P29376 whole entry): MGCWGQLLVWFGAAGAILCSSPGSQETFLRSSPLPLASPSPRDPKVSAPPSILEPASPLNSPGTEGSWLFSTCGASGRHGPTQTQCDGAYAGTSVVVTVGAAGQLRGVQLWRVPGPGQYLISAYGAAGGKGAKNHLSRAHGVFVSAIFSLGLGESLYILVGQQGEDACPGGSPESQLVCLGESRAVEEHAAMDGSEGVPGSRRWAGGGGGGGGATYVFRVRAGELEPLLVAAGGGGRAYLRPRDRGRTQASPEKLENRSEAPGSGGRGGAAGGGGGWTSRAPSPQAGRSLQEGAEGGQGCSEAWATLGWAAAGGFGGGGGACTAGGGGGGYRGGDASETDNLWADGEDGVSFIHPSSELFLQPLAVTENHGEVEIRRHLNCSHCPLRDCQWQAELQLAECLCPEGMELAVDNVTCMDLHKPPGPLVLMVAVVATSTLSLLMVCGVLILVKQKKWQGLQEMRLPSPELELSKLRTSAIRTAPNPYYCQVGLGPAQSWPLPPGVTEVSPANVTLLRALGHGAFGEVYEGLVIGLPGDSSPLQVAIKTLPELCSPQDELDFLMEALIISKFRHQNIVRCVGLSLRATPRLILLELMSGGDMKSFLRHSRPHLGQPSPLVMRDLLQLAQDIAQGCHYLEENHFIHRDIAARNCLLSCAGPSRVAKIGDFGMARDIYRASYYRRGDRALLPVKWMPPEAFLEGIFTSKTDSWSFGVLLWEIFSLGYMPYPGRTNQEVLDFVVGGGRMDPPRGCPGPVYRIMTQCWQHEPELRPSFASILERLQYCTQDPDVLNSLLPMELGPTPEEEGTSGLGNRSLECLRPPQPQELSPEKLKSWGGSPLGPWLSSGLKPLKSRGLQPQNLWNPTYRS
# Sequence of Serine/threonine-protein kinase PAK 4 (O96013 whole entry, looked up): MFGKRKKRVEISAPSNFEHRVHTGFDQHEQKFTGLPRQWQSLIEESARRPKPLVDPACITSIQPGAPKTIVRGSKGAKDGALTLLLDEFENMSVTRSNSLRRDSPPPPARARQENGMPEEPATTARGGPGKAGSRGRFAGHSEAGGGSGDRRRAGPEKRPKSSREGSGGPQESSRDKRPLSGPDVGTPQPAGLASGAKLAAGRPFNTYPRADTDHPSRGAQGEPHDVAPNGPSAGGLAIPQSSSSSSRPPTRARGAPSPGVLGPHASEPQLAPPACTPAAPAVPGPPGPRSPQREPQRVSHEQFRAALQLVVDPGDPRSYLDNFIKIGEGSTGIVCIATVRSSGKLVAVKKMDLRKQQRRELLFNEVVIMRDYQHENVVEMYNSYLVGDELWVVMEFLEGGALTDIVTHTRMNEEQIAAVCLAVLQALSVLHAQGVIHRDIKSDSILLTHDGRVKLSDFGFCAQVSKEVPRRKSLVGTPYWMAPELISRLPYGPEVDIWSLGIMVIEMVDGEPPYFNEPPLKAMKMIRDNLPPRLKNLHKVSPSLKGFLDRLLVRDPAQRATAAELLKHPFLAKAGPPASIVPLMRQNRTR
structure (smiles),measurement,setting,value
COc1cc(Nc2nc(C)cc(-c3cnn4nc(OC)ccc34)n2)cc(C(F)(F)F)c1,% of control,[1],100%
O=C(NOC[C@H](O)CO)c1ccc(F)c(F)c1Nc1ccc(I)cc1F,% of control,[2],84%
COc1cc(N(C)c2ccnc3ccc(C(F)(F)F)cc23)cc(OC)c1OC,% binding,[3],99%
CC[C@@H]1[C@H](F)C(=O)N[C@@H]1COc1nccc2cc(C(N)=O)c(OC)cc12 [ZIMLOVISERTIB],% of inhibition,[4],17.4%
Cc1cc(F)c(C(=O)Nc2cccc(-c3nncn3C(C)C)n2)cc1-n1cnc(C2CC2)c1,% of control,[5],93%
CNC(=O)Nc1ccc(-c2nc(N3CC4CCC(C3)O4)c3cnn(C4CCC5(CC4)OCCO5)c3n2)cc1,% of inhibition,[6],13%
C=CC(=O)Nc1cccc(C(=O)Nc2ccc(Nc3cc(-c4[nH]c(SC)nc4C)ccn3)cc2)c1,% of control,[7]; at 1 µM,100%
same,% of control,[7]; at 5 µM,95%
